Laboratory results as given in paper PMC8011784, “Chronic peptide-based GIP receptor inhibition exhibits modest glucose metabolic changes in mice when administered either alone or combined with GLP-1 agonism” (PLoS ONE, 2021).

Assays:
DIO mice [1] = experiment: Chronic GIPA-1 study: circulating lipids, liver and fat depots in DIO mice; type: in vivo, mouse; conditions: day 28, n = 10
Protocol: 23-week-old male C57BL/6JRj mice (n = 40), fed a HFD (SSNIFF® diet #12492[60% fat, 20% protein, 20% carbohydrate]) for 14 weeks, were distributed into 4 test groups and received daily either vehicle, liraglutide (0.2 mg/kg/day), GIPA-1 (~4.5 mg/kg/day) or liraglutide + GIPA-1 for 4 weeks while still maintained on HFD. GIPA-1 was delivered using minipumps in order to achieve sufficient GIPR antagonism based on the properties of this peptide (Fig 2A). Liraglutide was dissolved in phosphate-buffered saline (PBS) plus 0.1% bovine serum albumin (BSA) (vehicle 1) and GIPA-1 in DMSO/propylene glycol (50/50 volume per volume) (vehicle 2). 100 μL minipumps (Alzet) were filled with GIPA-1 (30 mg/mL) or vehicle 2 and kept in 0.9% saline at 37°C overnight. The minipump was placed subcutaneously through a 1-cm long incision in the neck with the animal under isoflurane anesthesia. Animals were treated with analgesics on day 0–3 (NSAID, carprofen […] SC QD). From day 0 (first dose) through day 28, mice received one of the following four treatments per day: (1) vehicle 1 (subcutaneous injection (SC)) and continuous infusion of vehicle 2 via osmotic minipump; (2) 0.2 mg/kg liraglutide (SC) and continuous infusion of vehicle 2 via osmotic minipump; (3) vehicle 1 (SC) and continuous infusion of GIPA-1 (~4.5 mg/kg/day; 56.8 nmol/kg/h) via osmotic minipump; and (4) liraglutide (0.2 mg/kg liraglutide, SC) plus continuous infusion of GIPA-1 (~4.5 mg/kg/day) via osmotic minipump. Dose levels of GIPA-1 were based on targeting plasma exposure levels sufficient to antagonise endogenous GIP and selected based on in vitro antagonism data. Fasted (4 hrs) blood glucose and insulin levels were measured on study day -3, 14 and 27. OGTT was performed on day 21 of the study. On the day of the OGTT the fasted animals received their daily doses of vehicles and liraglutide thirty minutes before receiving a glucose bolus (2 g/kg). Blood glucose was measured before their daily dosing and at 0, 15, 30 60, 120, 180 min after glucose administration. Plasma insulin was measured at 0 and 15 min. Whole body weight and food intake were measured throughout the study period. On the termination day (day 28), liver, epididymal fat depot, mesenteric fat depot, retroperitoneal fat depot and inguinal fat depot were dissected and weighted. Blood collected from the tail vein was used for determination of free fatty acids (FFAs) plasma concentration and blood collected via cardiac puncture was used for determination of terminal plasma triglyceride (TG) and total cholesterol (TC).
(§1) Fasting blood glucose was measured using a BIOSEN c-Line glucose meter (EKF-Diagnostics), insulin was measured using the Meso Scale Diagnostics platform, TG and TC were measured using commercial kits (Roche Diagnostics) on the Cobas C-501 autoanalyzer (Roche), and FFA levels were measured using a Wako Chemicals kit on the Cobas C-501 autoanalyzer, all according to the manufacturers’ instructions. Homeostatic model assessment of insulin resistance (HOMA-IR) was calculated using the following equation: [fasting serum glucose (mmol/L) × fasting serum insulin (pmol/L) / 22.5] to assess insulin resistance.
Fig 4 The effect of GIPR antagonism alone or in combination with liraglutide on lipid homeostasis in DIO mice. […] Statistical analysis was calculated using one-way ANOVA with Dunnett’s post-hoc test. *: p< 0.05, **: p < 0.01, ***: p < 0.001, ****: p<0.0001 compared to vehicle. […]

DIO mice [2] = experiment: Chronic GIPA-2 study: circulating lipids, liver and fat depots in DIO mice; type: in vivo, mouse; conditions: day 28, n = 10
Protocol: For studying the chronic effects of GIPA-2, male C57BL/6JRj mice (n = 40) were fed a HFD (SSNIFF® diet #12492) for 43 weeks. DIO mice were randomized (n = 10 per group) based on baseline blood glucose and body weight. Liraglutide was dissolved in PBS plus 0.1% BSA (Vehicle1) and GIPA-2 in PBS (vehicle 2). Mice received one of the following four treatments daily for 28 days while still maintained on HFD: (1) vehicle 1 (SC) and vehicle 2 (SC); (2) 0.2 mg/kg liraglutide (SC) and vehicle 2; (3) vehicle 1 (SC) and 10 mg/kg GIPA-2 (SC); and (4) 0.2 mg/kg liraglutide (SC) plus 10 mg/kg GIPA-2 (SC). GIPA-2 dose levels were selected based on doses shown to sufficiently antagonize insulinotropic actions of exogenous GIP in acute IPGTT studies (Fig 1J) adjusted for single daily dosing over the 4-week treatment period. Fasted (4 hrs) blood glucose and insulin were measured on study day -4, 10 and 26. An OGTT was performed on day 17. On the day of the OGTT the fasted animals (4 hrs) received their daily doses of vehicles, liraglutide and GIPA-2 one hour before receiving a glucose bolus (2 g/kg). Blood glucose was measured before their daily dosing and at 0, 15, 30 60, 120, 180 and 240 min after glucose administration. An insulin tolerance test (ITT) was performed on day 24. Fasting (4 hrs) mice received their daily doses of vehicles, liraglutide and GIPA-2 one hour before receiving insulin (0.5 U/kg, intraperitoneal injection). Blood glucose was measured before their daily dosing and at 0, 15, 30 60, 120, 180 min after glucose administration. Similar measurements were performed as in the GIPA-1 study. […]
as §1
Fig 4 The effect of GIPR antagonism alone or in combination with liraglutide on lipid homeostasis in DIO mice. […] Statistical analysis was calculated using one-way ANOVA with Dunnett’s post-hoc test. *: p< 0.05, **: p < 0.01, ***: p < 0.001, ****: p<0.0001 compared to vehicle.
Supplementary file pone.0249239.s002.tif: S2 Fig The effect of GIPR antagonists alone or in combination with liraglutide on lipid homeostasis in DIO mice. […] Statistical analysis was calculated using one-way ANOVA with Dunnett’s post-hoc test. *: p< 0.05, **: p < 0.01, ***: p < 0.001, ****: p<0.0001 compared to vehicle. […]

Substance: liraglutide
- circulating total cholesterol (TC) (DIO mice [1]): significantly reduced circulating TC and liver TG concentrations
- liver TG (DIO mice [1]): significantly reduced circulating TC and liver TG concentrations
- plasma FFA (DIO mice [1]): no effect on either plasma TG or concentrations of circulating FFA
- plasma TG (DIO mice [1]): no effect on either plasma TG or concentrations of circulating FFA
- retroperitoneal fat weight (DIO mice [1]): reduced in the GIPA-1 study in both the liraglutide and combination groups
- circulating total cholesterol (TC) (DIO mice [2]): significantly reduced circulating TC and liver TG concentrations
- liver TG (DIO mice [2]): significantly reduced circulating TC and liver TG concentrations
- plasma FFA (DIO mice [2]): no effect on either plasma TG or concentrations of circulating FFA
- plasma TG (DIO mice [2]): no effect on either plasma TG or concentrations of circulating FFA
